Source: patent US6593365B1, “Diflunisal esters and related compounds” (The University of Queensland, priority 1997, dated 2003)
Where two headings read alike, the source gives them in different places.

Experiments:
[1] = In vitro non-enzymatic hydrolysis in Krebs-Henseleit buffer; assay type: physicochemical; settings: for Hydrolysis rate constant (k): pH 7.4, 25° C., n=5; for half-life: pH 7.4, read-out: Half life (t1/2) (converted)
Method in brief: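 Derivatives dissolved in Krebs-Henseleit buffer, pH 7.4, 25±1° C, with no protein or 2% w/v BSA; solutions sonicated and centrifuged, supernatant sampled over time. First-order hydrolysis rate constant k derived from ester concentration vs time, and half-life calculated from k.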

[2] = test system: superoxide generated from xanthine oxidase plus xanthine reaction; experiment: Xanthine oxidase plus xanthine-induced chemiluminescence; assay type: biochemical; design: dose or concentration left out as unconfirmed; settings: X: CL induced by xanthine oxidase plus xanthine
[3] = test system: ischaemic/reperfusion rat livers; experiment: Ischaemic/reperfusion injury in rat livers (LDH release, bile production); design: species or system Female Sprague-Dawley rats; settings: Rattus norvegicus
[4] = test system: OH. generated from Fenton's reaction; experiment: Luminol-dependent chemiluminescence induced by Fenton's reagent; assay type: biochemical; design: unit of the concentration uncertain; settings: F: CL induced by Fenton's reagent, n=3
[5] = test system: human platelet rich plasma; experiment: Platelet aggregation induced by arachidonic acid; assay type: cell-based; settings: compound 600 µM, 37° C., arachidonic acid 200 µM
Method in brief: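 Citrated human PRP ([…]) preincubated with compound 3–45 min at 37 °C under stirring, then challenged with 200 µM arachidonic acid (final). Aggregation quantified as area under the turbidimetric curve; non-responding samples given 20 µM ADP to verify platelet viability.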

- Hydrolysis rate constant (k) ([1]; Krebs-Henseleit buffer 0% BSA, U = Undetectable): 0.0059 ± 0.0023 hour^1
- Hydrolysis rate constant (k) ([1]; Krebs-Henseleit buffer 2% BSA): 0.0021 ± 0.0017 hour^1
- half-life ([1]; bovine, Krebs-Henseleit buffer with 2% w/v BSA): 330 h
- half-life ([1]; protein-free Krebs-Henseleit buffer, Krebs-Henseleit buffer 0% BSA, first half life, t1/2=0.693/k, U = Undetectable): 117 h
- CL inhibition (%) [2]: 0.2 ± 0.0%
SMILES: CCCCCC(=O)Oc1ccccc1C(=O)O [Compound C6SA, n-hexanoylsalicylic acid]
- EC50 ([3]; C is the ED50 molar dose, read-out: log 1/C (converted)): 28.8 µM
- EC50 ([3]; molar dose for 50% reduction of LDH release compared to control, 30 min ischaemia, 100 min reperfusion, read-out: ED50 (the source's name)): 29.1 µM
- CL inhibition (%) ([4]; 0.5 (unit uncertain) compound, U = undetectable): 0.2 ± 0.1%
- CL inhibition (%) ([4]; 2.5 (unit uncertain) compound): 56.0 ± 3.7%
- CL inhibition (%) ([4]; 5 (unit uncertain) compound): 96.0 ± 2.1%
- Platelet Aggregation (% of control) ([5]; preincubation 3 minutes): 90.1 ± 2.2 % of control
- Platelet Aggregation (% of control) ([5]; preincubation 5 minutes): 70.5 ± 3.1 % of control
- Platelet Aggregation (% of control) ([5]; preincubation 8 minutes): 39.9 ± 1.1 % of control
- Platelet Aggregation (% of control) ([5]; preincubation 10 minutes): 0 % of control
- Platelet Aggregation (% of control) ([5]; preincubation 12 minutes): 0 % of control
- Platelet Aggregation (% of control) ([5]; preincubation 15 minutes): 0 % of control
- Platelet Aggregation (% of control) ([5]; preincubation 20 minutes): 0 % of control
- Platelet Aggregation (% of control) ([5]; preincubation 25 minutes): 0 % of control
- Platelet Aggregation (% of control) ([5]; preincubation 45 minutes): 0 % of control
